Like-named read-outs stand apart in the source and are kept apart here. No end group written: not given here.
What was measured:
[1] = In vitro plasma stability in undiluted pooled human plasma; format: in vitro ADME; settings: for T1/2: 100 μM ligand, 37° C., mean ± SEM (Table 13, FIG. 10)
Experimental: At selected time points during the incubation, the ligands were extracted from the assay matrix by adding assay matrix to 6M Urea followed by precipitation using 20% TCA in acetone. After overnight incubation, the samples were filtered and analysed by UPLC to determine the amount of ligand remaining. LC-MS analysis was performed to confirm ligand integrity and identify cleavage sites.

[2] = molecular target: PDZ1-2 of PSD-95 (Homo sapiens, UniProt P78352); assay: Fluorescence polarization (FP) competition assay, affinity to PDZ1-2 of PSD-95; format: binding; settings: NPEG4-(KETLV)2 fused to polyArg CPP-tags; mean ± SEM, n ≥ 3 (Table 7, FIG. 4)
Chain of PDZ1-2 of PSD-95 (P78352 61-249 limits assumed): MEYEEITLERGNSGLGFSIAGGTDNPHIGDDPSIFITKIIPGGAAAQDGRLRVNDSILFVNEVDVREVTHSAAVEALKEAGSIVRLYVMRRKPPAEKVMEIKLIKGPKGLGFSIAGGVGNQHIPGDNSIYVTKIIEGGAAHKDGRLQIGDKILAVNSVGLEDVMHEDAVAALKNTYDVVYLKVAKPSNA
Experimental: First, a saturation binding curve was obtained to determine KD values for the interaction between a fluorescent dimeric probe and PDZ1-2 of PSD-95. Increasing concentrations of PDZ1-2 (0.015-30 nM) were added to a constant concentration of the probe (0.5 nM). The fluorescence polarization (FP) of the sample was measured at excitation/emission wavelength of 635/670 nm and the generated FP values were fitted to a one site binding model using the software GraphPad Prism. […] The FP values were fitted to a one site competition (variable slope) model in GraphPad prism. The resulting IC50 values were converted to Ki values as described previously by Nikolovska-Coleska et al., Anal. Biochem., 2004, 332, 261).

[3] = molecular target: PDZ1 and PDZ2 of PSD-95; settings: in vitro FP assay; read-out: Ki values towards PDZ1 and PDZ2 of PSD-95; cited from earlier work
[4] = tested on: patients with ischemic stroke undergoing endovascular thrombectomy; settings: cited from earlier work
[5] = molecular target: T1, plasmin (Homo sapiens, UniProt P00747); settings: plasmin generated by tPA; cited from earlier work
T1 construct: Tissue plasminogen factor (tPA), which generates plasmin from plasminogen
T1 sequence (P00747 581-810 limits assumed, species assumed): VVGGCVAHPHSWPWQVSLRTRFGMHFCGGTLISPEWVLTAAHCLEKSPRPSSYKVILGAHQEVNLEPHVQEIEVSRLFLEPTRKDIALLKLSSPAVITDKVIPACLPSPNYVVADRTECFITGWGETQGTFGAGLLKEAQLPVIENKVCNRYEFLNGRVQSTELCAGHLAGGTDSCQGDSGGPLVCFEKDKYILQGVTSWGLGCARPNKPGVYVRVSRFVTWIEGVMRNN
T1 sequence (P00747 97-580 partner limits assumed, species assumed): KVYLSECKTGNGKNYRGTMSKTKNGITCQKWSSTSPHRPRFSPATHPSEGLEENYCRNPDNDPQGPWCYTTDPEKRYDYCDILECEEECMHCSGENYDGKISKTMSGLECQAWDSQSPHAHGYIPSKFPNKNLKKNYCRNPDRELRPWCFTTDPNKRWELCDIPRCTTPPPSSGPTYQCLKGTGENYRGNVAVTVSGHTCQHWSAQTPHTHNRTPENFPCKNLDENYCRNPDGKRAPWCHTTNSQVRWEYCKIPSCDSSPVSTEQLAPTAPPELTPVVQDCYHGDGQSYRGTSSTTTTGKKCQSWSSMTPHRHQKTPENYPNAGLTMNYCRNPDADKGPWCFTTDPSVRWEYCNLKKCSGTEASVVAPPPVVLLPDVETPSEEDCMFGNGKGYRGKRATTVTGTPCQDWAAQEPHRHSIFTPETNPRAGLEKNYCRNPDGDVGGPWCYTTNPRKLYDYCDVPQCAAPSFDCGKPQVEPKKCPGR

[6] = tested on: pMCAO mice; settings: cited from earlier work; for neuroprotective properties: mice, pMCAO, same experimental conditions and dose (3 nmol/g)
[7] = molecular target: T1, plasmin; assay: In vitro plasmin stability assay; format: in vitro ADME; settings: plasmin (5 μg/mL) in PBS; read-out: T1/2
Experimental: At selected time points during the incubation, the ligands were extracted from 80 μL of assay matrix by treatment with 80 μL of 50% acetonitrile (ACN). The samples were filtered and analysed by UPLC to determine the amount of ligand remaining. LC-MS analysis was performed to confirm ligand integrity and identify cleavage sites.

CC(=O)N[C@@H](CCCNC(=N)N)C(=O)N[C@@H](CCCNC(=N)N)C(=O)N[C@@H](CCCNC(=N)N)C(=O)N[C@@H](CCCNC(=N)N)C(=O)N(CCOCCOCCC(=O)N[C@@H](CCCCN)C(=O)N[C@@H](CCC(=O)O)C(=O)N[C@H](C(=O)N[C@@H](CC(C)C)C(=O)N[C@H](C(=O)O)C(C)C)[C@@H](C)O)CCOCCOCCC(=O)N[C@@H](CCCCN)C(=O)N[C@@H](CCC(=O)O)C(=O)N[C@H](C(=O)N[C@@H](CC(C)C)C(=O)N[C@H](C(=O)O)C(C)C)[C@@H](C)O [Compound 73]
half-life at 100 μM ([1]; human): 15.2 ± 3.6 h | Ki [2]: 11.1 ± 0.9 nM

CC(=O)N[C@@H](CCCNC(=N)N)C(=O)N[C@@H](CCCNC(=N)N)C(=O)N[C@@H](CCCNC(=N)N)C(=O)N[C@@H](CCCNC(=N)N)C(=O)N[C@@H](CCCNC(=N)N)C(=O)N[C@@H](CCCNC(=N)N)C(=O)N(CCOCCOCCC(=O)N[C@@H](CCCCN)C(=O)N[C@@H](CCC(=O)O)C(=O)N[C@H](C(=O)N[C@@H](CC(C)C)C(=O)N[C@H](C(=O)O)C(C)C)[C@@H](C)O)CCOCCOCCC(=O)N[C@@H](CCCCN)C(=O)N[C@@H](CCC(=O)O)C(=O)N[C@H](C(=O)N[C@@H](CC(C)C)C(=O)N[C@H](C(=O)O)C(C)C)[C@@H](C)O [Compound 69]
T1/2 [1]: 24 ± 0 h | Ki [2]: 8.6 ± 0.3 nM

YGRKKRRQRRRKLSSIESDV [nerinetide]
Ki [3]: 5000 to 10000 nM | clinical effect ([4]; group not receiving alteplase): improved functional outcomes, reduced mortality, and reduced infarction volumes | clinical effect ([4]; patients receiving alteplase): not effective | cleavage by plasmin [5]: cleaves nerinetide | neuroprotective properties [6]: did not show significant neuroprotective properties

CC[C@H](C)[C@H](NC(=O)CCOCCOCCOCCOCCOCCC(=O)N[C@H](C(=O)N[C@@H](CCC(=O)O)C(=O)N[C@H](C(=O)N[C@@H](CC(=O)O)C(=O)N[C@H](C(=O)O)C(C)C)[C@@H](C)O)[C@@H](C)CC)C(=O)N[C@@H](CCC(=O)O)C(=O)N[C@H](C(=O)N[C@@H](CC(=O)O)C(=O)N[C@H](C(=O)O)C(C)C)[C@@H](C)O [Compound 1, OPEG4-(IETDV)2]
neuroprotective properties [6]: showed no neuroprotective properties | reaching the brain ([6]; mouse, in vivo): did not reach the brain

CC[C@H](C)[C@H](NC(=O)CCOCCOCCN(CCOCCOCCC(=O)N[C@H](C(=O)N[C@@H](CCC(=O)O)C(=O)N[C@H](C(=O)N[C@@H](CC(=O)O)C(=O)N[C@H](C(=O)O)C(C)C)[C@@H](C)O)[C@@H](C)CC)C(=O)[C@H](CCCNC(=N)N)NC(=O)[C@H](CCCNC(=N)N)NC(=O)[C@H](CCCNC(=N)N)NC(=O)[C@H](CCC(N)=O)NC(=O)[C@H](CCCNC(=N)N)NC(=O)[C@H](CCCNC(=N)N)NC(=O)[C@H](CCCCN)NC(=O)[C@H](CCCCN)NC(=O)[C@H](CCCNC(=N)N)NC(=O)CNC(=O)[C@@H](N)Cc1ccc(O)cc1)C(=O)N[C@@H](CCC(=O)O)C(=O)N[C@H](C(=O)N[C@@H](CC(=O)O)C(=O)N[C@H](C(=O)O)C(C)C)[C@@H](C)O [Compound 8, L-TAT-NPEG4(IETDV)2, reference compound]
half-life at 100 μM [7]: 9.05 ± 1 h | T1/2 [1]: 24 ± 0 h

From patent US20240245793A1, “PSD-95 INHIBITORS AND USES THEREOF” (priority 2021, published 2024)
